This is an account of results in US4443536A, “Nondiffusible photographic couplers and photographic elements and processes employing same” (Eastman Kodak Company, priority 1982, dated 1984).

A short description of this data set: Dye hue from spectrophotometric curves: λ-max, half band width, curve shape factor. The following applies: for CSF (curve shape factor, 100 X TBW/HBW) / HBW (half band width) / λ-max (maximum absorption peak of dye): Table I; for CSF / HBW / λ-max: Table II. Here is the method: Photographic elements containing couplers of this invention and control couplers were prepared and tested according to the procedures described below.
The photosensitive layer was overcoated with a layer containing gelatin at 1.08 g/m^2 and bis-vinyl-sulfonylmethyl ether at 1.75 weight percent based on total gelatin.
Samples of each element were imagewise exposed through a graduated-density test object and processed at 40° C. employing one of three color developing solutions identified below then stopped, bleached, fixed and washed.
In each element, well-defined, dye images were produced which were evaluated by plotting dye density vs. log exposure sensitometric curves and recording the maximum dye density (Dmax) and gamma (γ) i.e., the contrast determined by the slope of the straight line portion of the curve. Additionally, dye hues were evaluated from spectrophotometric curves by measuring the maximum absorption peak (λmax) normalized to a density of 1.0 and the half band width (HBW). Halfband width is the width, in nanometers, of the spectrophotometric curve at one-half the difference between maximum density and stain. Similarly, the top-band width (TBW) and bottom-band width (BBW) of the curve were measured at three-fourths and one-fourth, respectively, of the normalized density. Curve shape factor (CSF) equals 100 X TBW/HBW and provides a ratio of the width near the top and bottom of the absorption curve. The greater this ratio, the steeper are the sides of the absorption peak, and the more efficient is the dye's absorption of light in its spectral region.
Photographic elements containing additional couplers of this invention were prepared, processed and evaluated as described above in connection with Examples 1-14.

[1] abbreviates: coupler solvent CS-1, developer D-1.
[2] abbreviates: coupler solvent CS-2, developer D-2.
The mark [3] stands for this setting: coupler solvent CS-2, developer D-3.
Where [4] appears, read: coupler solvent CS-3, developer D-2.
[5] abbreviates: coupler solvent CS-3, developer D-1.
The mark [6] stands for this setting: coupler solvent CS-3, developer D-3.
Setting [7] is: coupler solvent CS-4, developer D-3.

SMILES strings stand for the structures. Several values for one entry are separate records, joined by “and”; a condition that tells them apart may be missing. Equal entries are not always repeated.

On to `CCCCCCCCCCCCCCCc1cccc(OC(CC)C(=O)NC2=NN(c3c(C)cc(C)cc3Cl)C(=O)C2)c1` (stereo not drawn) [CC-1, reference compound], for which, under setting [1], the “CSF (curve shape factor, 100 X TBW/HBW)” value was 43.3 and 43.6 and 43.1; the “HBW (half band width)” value turned out to be 94 nanometers; the “λ-max (maximum absorption peak of dye)” value was 531.

Take `CCCCCCCCCCCCC(Oc1ccc(O)c(C(C)(C)C)c1)C(=O)Nc1ccc(Cl)c(NC2=NN(c3c(Cl)cc(Cl)cc3Cl)C(=O)C2)c1` (stereo not drawn) [CC-2, reference compound]: under setting [2], the “CSF (curve shape factor, 100 X TBW/HBW)” value was 46.3 and 39.5 and 39.9; the “HBW (half band width)” value was 81 nanometers and 79 nanometers and 78 nanometers; the “λ-max (maximum absorption peak of dye)” value is 539 and 540. Further, under setting [3], the “CSF (curve shape factor, 100 X TBW/HBW)” value is 40.4; the “HBW (half band width)” value was found to be 79 nanometers; the “λ-max (maximum absorption peak of dye)” value came to 545.

Take `CCC(C)(C)c1ccc(OCC(=O)Nc2cccc(C(=O)NC3=NN(c4c(Cl)cc(Cl)cc4Cl)C(=O)C3)c2)c(C(C)(C)CC)c1` [CC-3, reference compound]: under setting [3], the “CSF (curve shape factor, 100 X TBW/HBW)” value came out at 45.3; the “HBW (half band width)” value is on record as 88 nanometers; the “λ-max (maximum absorption peak of dye)” value is recorded as 556.

Take `CCc1c(Cl)cc(NC(=O)C(CC)Oc2ccc(C(C)(C)CC)cc2C(C)(C)CC)c(O)c1Cl` (stereo not drawn) [CC-4, reference compound]: under setting [4], the “CSF (curve shape factor, 100 X TBW/HBW)” value is on record as 45.2; the “HBW (half band width)” value came out at 141 nanometers; the “λ-max (maximum absorption peak of dye)” value came out at 659.

Take `CCCCCCCCCCCCCCCCS(=O)(=O)Nc1ccc(Cl)c(NC(=O)C(Oc2ccc(S(=O)(=O)c3ccc(OCc4ccccc4)cc3)cc2)C(=O)C(C)(C)C)c1` (stereo not drawn) [CC-5, reference compound]: under setting [4], the “CSF (curve shape factor, 100 X TBW/HBW)” value came to 43.5; the “HBW (half band width)” value stood at 88 nanometers; the “λ-max (maximum absorption peak of dye)” value turned out to be 446.

In the case of `CCC(C)(C)c1ccc(OCCCC(=O)Nc2ccc(Cl)c(NC(=O)C(Oc3ccc(S(=O)(=O)c4ccc(OCc5ccccc5)cc4)cc3)C(=O)C(C)(C)C)c2)c(C(C)(C)CC)c1` (stereo not drawn) [CC-6, reference compound], under setting [4], the “CSF (curve shape factor, 100 X TBW/HBW)” value is recorded as 42.0; the “HBW (half band width)” value is 85 nanometers; the “λ-max (maximum absorption peak of dye)” value turned out to be 441.

Consider `CCCCC(Oc1ccc(S(=O)(=O)c2ccc(OCc3ccccc3)cc2)cc1)C(=O)Nc1ccc(Cl)c(NC(=O)C(Oc2ccc(S(=O)(=O)c3ccc(O)cc3)cc2)C(=O)C(C)(C)C)c1` (stereo not drawn) [CC-7, reference compound], for which, under setting [4], the “CSF (curve shape factor, 100 X TBW/HBW)” value came to 45.2; the “HBW (half band width)” value came to 85 nanometers; the “λ-max (maximum absorption peak of dye)” value amounted to 445.

In the case of `CCCCC(Oc1ccc(S(=O)(=O)c2ccc(OCc3ccccc3)cc2)cc1)C(=O)Nc1cccc(NC(=O)C(Oc2ccc(S(=O)(=O)c3ccc(O)cc3)cc2)C(=O)C(C)(C)C)c1` (stereo not drawn) [CC-8, reference compound], under setting [4], the “CSF (curve shape factor, 100 X TBW/HBW)” value turned out to be 44.3; the “HBW (half band width)” value was found to be 90 nanometers; the “λ-max (maximum absorption peak of dye)” value was determined as 439.

In the case of `CCCCCCCCCCC(Oc1ccc(S(=O)(=O)c2ccc(OCc3ccccc3)cc2)cc1)C(=O)Nc1ccc(Cl)c(NC(=O)C(Oc2ccc(S(=O)(=O)c3ccc(O)cc3)cc2)C(=O)C(C)(C)C)c1` (stereo not drawn) [CC-9, reference compound], under setting [5], the “CSF (curve shape factor, 100 X TBW/HBW)” value is 43.8; the “HBW (half band width)” value worked out at 87 nanometers; the “λ-max (maximum absorption peak of dye)” value worked out at 450.

Turning to `CCCCCCCCCCCCC(Oc1ccc(S(=O)(=O)c2ccc(O)cc2)cc1)C(=O)Nc1ccc(NC(=O)CCC)c(O)c1` (stereo not drawn) [Coupler C-2], under setting [5], the CSF worked out at 45.7%, the HBW worked out at 144 nm and the λ-max is reported as 655 nm.

Under setting [4], `CCCCCCCCCCCCC(Oc1ccc(S(=O)(=O)c2ccc(O)cc2)cc1)C(=O)Nc1ccc(NC(=O)C(F)(F)F)c(O)c1` (stereo not drawn) [Coupler C-3] returned a CSF of 47.8%, an HBW of 161 nm and a λ-max of 659 nm.

Under setting [6], `CCCCCCCCCCC(Oc1ccc(S(=O)(=O)c2ccc(O)cc2)cc1)C(=O)Nc1cc(O)c(NC(=O)Nc2cccc(S(=O)(=O)NCCCC)c2)cc1OC` (stereo not drawn) [Coupler C-13] yielded a CSF of 44.4%, an HBW of 135 nm and a λ-max of 702 nm.

In the case of `CCCCCCCCCCC(Oc1ccc(S(=O)(=O)c2ccc(O)cc2)cc1)C(=O)Nc1cc(Cl)c(CC)c(Cl)c1O` (stereo not drawn) [Coupler C-31], under setting [4], the “CSF (curve shape factor, 100 X TBW/HBW)” value is recorded as 47.0; the “HBW (half band width)” value was 160 nanometers; the “λ-max (maximum absorption peak of dye)” value is reported as 675.

For the compound `CCCCCCCCCCCCC(Oc1ccc(S(=O)(=O)c2ccc(O)cc2)cc1)C(=O)NC1=NN(c2c(Cl)cc(Cl)cc2Cl)C(=O)C1` (stereo not drawn) [Coupler M-3], under setting [1], the “CSF (curve shape factor, 100 X TBW/HBW)” value is 46.0; the “HBW (half band width)” value was 96 nanometers; the “λ-max (maximum absorption peak of dye)” value came out at 546; the CSF is recorded as 45.7%. Also, under setting [1], the HBW was 96 nm and the λ-max came to 546 nm.

In the case of `CCCCCCCCCCC(Oc1ccc(S(=O)(=O)c2ccc(O)cc2)cc1)C(=O)Nc1ccc(CCCc2n[nH]c3cc(C)nn23)cc1` (stereo not drawn) [Coupler M-8], under setting [3], the “CSF (curve shape factor, 100 X TBW/HBW)” value amounted to 50.5; the “HBW (half band width)” value stood at 86 nanometers; the “λ-max (maximum absorption peak of dye)” value is 550.

On to `CCCCCCCCCCC(Oc1ccc(S(=O)(=O)c2ccc(O)cc2)cc1)C(=O)Nc1ccc(CCCc2n[nH]c3c(Cl)c(C)nn23)cc1` (stereo not drawn) [Coupler M-9], for which, under setting [7], the CSF is 44.2%, the HBW was 90 nm and the λ-max stood at 558 nm.

As to `CCCCCCCCCCCCC(Oc1ccc(S(=O)(=O)c2ccc(O)cc2)cc1)C(=O)Nc1ccc(Cl)c(NC2=NN(c3c(Cl)cc(Cl)cc3Cl)C(=O)C2)c1` (stereo not drawn) [Coupler M-27], under setting [1], the “CSF (curve shape factor, 100 X TBW/HBW)” value is recorded as 47.0; the “HBW (half band width)” value amounted to 91 nanometers; the “λ-max (maximum absorption peak of dye)” value stood at 545.

Take `CCCCCCCCCCC(Oc1ccc(S(=O)(=O)c2ccc(O)cc2)cc1)C(=O)Nc1ccc(Cl)c(NC2=NN(c3c(Cl)cc(Cl)cc3Cl)C(=O)C2)c1` (stereo not drawn) [Coupler M-28]: under setting [1], the “CSF (curve shape factor, 100 X TBW/HBW)” value was determined as 46.7; the “HBW (half band width)” value is on record as 92 nanometers; the “λ-max (maximum absorption peak of dye)” value is recorded as 549. Moreover, under setting [2], the “CSF (curve shape factor, 100 X TBW/HBW)” value came out at 46.5; the “HBW (half band width)” value was 93 nanometers; the “λ-max (maximum absorption peak of dye)” value is listed as 541. Besides, under setting [3], the “CSF (curve shape factor, 100 X TBW/HBW)” value is reported as 46.4; the “HBW (half band width)” value is given as 94 nanometers; the “λ-max (maximum absorption peak of dye)” value was determined as 549; the CSF turned out to be 42.6%. Under setting [3], this compound displayed an HBW of 94 nm and a λ-max of 549 nm.

As for `CCCCCCCCCCC(Oc1ccc(S(=O)(=O)c2ccc(O)cc2)cc1)C(=O)Nc1ccc(Cl)c(NC2=NN(c3c(Cl)cc(Cl)cc3Cl)C(=O)C2SCCCCCCC)c1` (stereo not drawn) [Coupler M-29], under setting [2], the “CSF (curve shape factor, 100 X TBW/HBW)” value is on record as 46.7; the “HBW (half band width)” value was 88 nanometers; the “λ-max (maximum absorption peak of dye)” value came out at 540. Also, under setting [3], the “CSF (curve shape factor, 100 X TBW/HBW)” value is 40.9; the “HBW (half band width)” value came out at 90 nanometers; the “λ-max (maximum absorption peak of dye)” value turned out to be 545.

`CCCCCCCCCCC(CN(C)S(=O)(=O)c1ccc(NC2=NN(c3c(Cl)cc(S(=O)(=O)N(C)C)cc3Cl)C(=O)C2)c(Cl)c1)Oc1ccc(S(=O)(=O)c2ccc(O)cc2)cc1` (stereo not drawn) [Coupler M-32]: under setting [2], the “CSF (curve shape factor, 100 X TBW/HBW)” value worked out at 40.9; the “HBW (half band width)” value amounted to 82 nanometers; the “λ-max (maximum absorption peak of dye)” value stood at 549.

On to `CC(C)(C)C(=O)C(Oc1ccc(S(=O)(=O)c2ccc(OCc3ccccc3)cc2)cc1)C(=O)Nc1cc(NS(=O)(=O)c2ccc(O)cc2)ccc1Cl` (stereo not drawn) [Coupler Y-1], for which, under setting [4], the “CSF (curve shape factor, 100 X TBW/HBW)” value is 43.7; the “HBW (half band width)” value is recorded as 88 nanometers; the “λ-max (maximum absorption peak of dye)” value turned out to be 449.

As for `CCCCC(Oc1ccc(S(=O)(=O)c2ccc(O)cc2)cc1)C(=O)Nc1ccc(Cl)c(NC(=O)C(Oc2ccc(S(=O)(=O)c3ccc(O)cc3)cc2)C(=O)C(C)(C)C)c1` (stereo not drawn) [Coupler Y-2], under setting [4], the “CSF (curve shape factor, 100 X TBW/HBW)” value came to 44.4; the “HBW (half band width)” value is listed as 90 nanometers; the “λ-max (maximum absorption peak of dye)” value is on record as 445.

On to `CCCCC(Oc1ccc(S(=O)(=O)c2ccc(O)cc2)cc1)C(=O)Nc1cccc(NC(=O)C(Oc2ccc(S(=O)(=O)c3ccc(O)cc3)cc2)C(=O)C(C)(C)C)c1` (stereo not drawn) [Coupler Y-3], for which, under setting [4], the “CSF (curve shape factor, 100 X TBW/HBW)” value came out at 44.4; the “HBW (half band width)” value came to 93 nanometers; the “λ-max (maximum absorption peak of dye)” value came out at 441.

Consider `CCCCCCCCCCC(Oc1ccc(S(=O)(=O)c2ccc(O)cc2)cc1)C(=O)Nc1ccc(Cl)c(NC(=O)C(Oc2ccc(S(=O)(=O)c3ccc(O)cc3)cc2)C(=O)C(C)(C)C)c1` (stereo not drawn) [Coupler Y-4], for which, under setting [5], the “CSF (curve shape factor, 100 X TBW/HBW)” value is 44.6; the “HBW (half band width)” value stood at 90 nanometers; the “λ-max (maximum absorption peak of dye)” value is given as 450.
